Data reported in US20040082510A1, “Pyk2 phosphorylation by her3 induces tumor invasion” (priority 2001, published 2004).

Tests used:
[1] = system: PYK2 tyrosine phosphorylation in SF767 gliomas; assay: PYK2 tyrosine phosphorylation in SF767 gliomas (immunoprecipitation, anti-phosphotyrosine western blot); type: cell-based, human; conditions: for HRG-induced tyrosine phosphorylation of PYK2: 5 μg/ml HRG 20 min, pretreatment with PP1 5 μM 30 min, AG825 10 μM 1 hour or Wortmannin 100 nM 30 min
Description: (§1) SF767 gliomas were pretreated with 5 μM PP1 for 30 minutes and stimulated either with 5 μg ml^−1 Heregulin (HRG, left panel) or 5 μM lonomycin (IONO, right panel) for 20 min and 5 min, respectively. b, PYK2 coprecipitation with HER3 depends on the HER2 kinase activity, and tyrosine phosphorylation of PYK2 is proportional to its binding to HER3. SF767 gliomas were pretreated with 10 μM AG825 for 1 hour and stimulated with 5 μg ml^−1 Heregulin for 20 min (HRG). Cell lysates were subjected to immunoprecipitation (IP) using polyclonal anti-PYK2 (α-PYK2) or monoclonal anti-HER3 (α-HER3) antibodies. Tyrosine phosphorylation level was analysed by western blotting (WB) with monoclonal anti-phosphotyrosine antibody (α-4G10) (a, upper panels, and b, upper panel). Equal loading of proteins was checked by reblotting with α-PYK2 and α-HER3 antibodies, respectively (a, lower panels, and b, middle and lower panels). PYK2 coprecipitating with HER3 was detected by probing the membrane with α-PYK2 antibody (b, middle panel, lanes 1-4). Unstimulated cells are indicated by NS.
SF763, SF767 or transfected HEK293 cells were either left untreated or were pretreated with PP1 (10 μM), AG825 (10 μM), Wortmannin (WT) (100 nM) and PD98059 (25 μM) for 30-60 min following stimulation with 5 μg/ml recombinant human HRG for 20 min or with 5 μM IONO for 5 min at 37° C. Upon HRG or IONO stimulation, the cells were lysed on ice in a lysis buffer (50 mM HEPES pH 7.5, containing 150 mM NaCl, 1 mM EDTA, 10% (v/v) glycerol, 1% (v/v) Triton X-100, 1 mM sodium fluoride, 1 mM phenylmethylsulfonyl fluoride, 1 mM sodium orthovanadate, 1 mM β-glycerolphosphate, […] aprotinin). Crude lysates were centrifuged at 12500 g for 20 min at 4° C. For immunoprecipitations, the appropriate antiserum and 30 μl of protein A-Sepharose (Pharmacia) was added to the cleared lysate and incubated for 3 h at 4° C. […]
(§2) Proteins were fractionated by SDS-PAGE and electrophoretically transferred to nitrocellulose filters. […] The substrate reaction was detected on Kodak X-Omat film. […]

[2] = system: PYK2 coprecipitating with HER3 in SF767 gliomas; assay: PYK2 coprecipitation with HER3 in SF767 gliomas; type: cell-based, human; conditions: AG825 10 μM 1 hour, with or without HRG
Description: as §1, with “NS. […]” for “NS.”
as §2

[3] = system: SHC tyrosine phosphorylation in SF767 gliomas; assay: SHC tyrosine phosphorylation in SF767 gliomas; type: cell-based, human; conditions: AG825 10 μM 1 hour, 5 μg/ml HRG 20 min
Description: (§3) FIG. 5: PYK2 mediates mitogenicity upon HRG stimulation. a, b, SF767 gliomas were pretreated either with 10 μM AG825 for 1 hour or with 100 nM Wortmannin for 30 min (WT), and then stimulated with 5 μg ml^−1 Heregulin for 20 min (HRG). Tyrosine phosphorylation of SHC was elevated by HRG and attenuated by pretreatment with AG825, but not fully abrogated (a). The same holds also for ERK-2 activity, when cells were pretreated either with AG825 or with WT (b). Cell lysates were used for immunoprecipitation with polyclonal anti-SHC (α-SHC) (a), or polyclonal anti-Erk-2 (α-ERK-2) antibodies (b). α-SHC-immunocomplexes were blotted with a monoclonal anti-phosphotyrosine antibody (α-4G10) (a), whereas α-ERK-2 immunocomplexes were subjected to MAP-kinase assays (b). Phosphorylated MBP is indicated by an arrow. c, Tetracyclin-inducible pheochromocytoma PC12 cells, either stably expressing PYK2-KM (Tet−), or only endogenous PYK2 (Tet+), were pretreated either with 100 nm Wortmannin for 30 min (WT), or 10 μM AG825 for 1 hour prior to stimulation with 5 μg ml^−1 Heregulin for 20 min (HRG). Basal ERK-2 activity is independent of HER2 and Pl3-K, whereas the HRG-stimulated ERK-2 activity is dependent on HER2, Pl3-K and PYK2. […]
as §2

[4] = system: ERK-2 activity in SF767 gliomas; assay: MAP-kinase assay on ERK-2 immunocomplexes from SF767 gliomas; type: cell-based, human; conditions: AG825 10 μM 1 hour or WT 100 nM 30 min, 5 μg/ml HRG 20 min
Description: as §3, with “PYK2. Overexpression of PYK2-KM leads to a general attenuation of ERK-2 activity (compare Tet− with Tet+ bands).” for “PYK2.”

[5] = system: ERK-2 activity in PC12 cells; assay: MAP-kinase assay on ERK-2 immunocomplexes from tetracyclin-inducible PC12 cells (Tet-off PYK2-KM); type: cell-based, rat; conditions: AG825 10 μM 1 hour, WT 100 nM 30 min or PYK2-KM expression (Tet−); for HRG-stimulated ERK-2 activity: 5 μg/ml HRG 20 min; for Basal ERK-2 activity: unstimulated
[6] = system: Pl3-K activity in PC12 cells; assay: Pl3-K assay on anti-phosphotyrosine immunoprecipitates from tetracyclin-inducible PC12 cells; type: cell-based, rat; conditions: PC12 Tet-off; 5 μg/ml HRG 20 min; AG825 10 μM 1 hour or PYK2-KM expression (Tet−)
Description: FIG. 6: PYK2 enhances Pl3-K activity upon HRG stimulation. a, Tetracyclin-inducible pheochromocytoma […], either stably expressing PYK2-KM (Tet−) or only endogenous PYK2 (Tet+), were pretreated either with 100 nm Wortmannin for 30 min (WT), or 10 μM AG825 for 1 hour prior to stimulation with 5 μg ml^−1 Heregulin for 20 min (HRG). Lysates were subjected to α-4G10 immunoprecipitation and Pl3-K assays were performed (see Methods section). Pl3-K activity is strongly dependent on PYK2 upon HRG stimulation, and is diminished by AG825. MAP-kinase and Pl3-kinase assays were performed as described previously (49, 50).

[7] = system: HER2 tyrosine phosphorylation in PC 12 cells; assay: HER2 tyrosine phosphorylation in PC 12 cells; type: cell-based, rat; conditions: 10 μM AG825, HRG stimulation
Description: (§4) FIGS. 13, 14: PC 12 cells were left untreated or pretreated either with 10 μM AG825, 50 μM PD98059 or both and subsequently stimulated with HRG. Immunoprecipitations of HER2 (α-HER2) or of tyrosyl-phosphorylated proteins (α-PY) were probed with phosphotyrosine antibody (α-PY). […] Reprobing of the blot with HER2 antibody confirms equal loading of proteins. SHC is indicated by an arrow.

[8] = system: SHC tyrosine phosphorylation in PC 12 cells; assay: SHC tyrosine phosphorylation in PC 12 cells; type: cell-based, rat; conditions: 10 μM AG825, HRG stimulation
Description: as §4

[9] = system: C6 gliomas; assay: Tumor invasion assay, C6 gliomas; type: cell-based, rat; conditions: 5 μg/ml HRG, 16 h, PD98059 25 μM 30 min pretreatment or retroviral PYK2-KM
Description: (§5) FIG. 7: PYK2-KM inhibits tumor invasion upon HRG stimulation. a, C6 gliomas were retrovirally infected with either a control vector pLXSN (mock), PYK2, dominant negative PYK2 mutant PYK2-KM, or pretreated with a MEK1 inhibitor PD98059 (25 μM) for 30 min, and tumor invasion assays were performed (see Methods section). b, Invasion is supressed to the same extent by PD98059 and by overexpression of PYK2-KM (p>0.95). c, SF767 gliomas were retrovirally infected with pLXSN or PYK2-KM. d, Tumor invasion is supressed by overexpresssion of PYK2-KM in SF767 (p<0.008), and also in SF763 cell line (p<0.005), as shown by using the same assay. Representative bright-field micrographs of cells that migrated through the 8 μm filters in 16 h are shown. […]
(§6) Amphotrophic virus titer, which was generated by transient transfection of retrovirus expression plasmids into the virus producer cell line PhoenixA (ATCC), was determined by infecting NIH-3T3 cells with serial dilutions of retrovirus-containing, cell-free PhoenixA supernatants and counting the number of G418-resistant colonies. […]
(§7) Tumor invasion assay was performed as describ d previously (31). […] Following 16 h of incubation, non-invading cells were removed with cotton swabs, whereas invading cells were fixed, stained with Crystal violet and counted under bright-field illumination using an Axiovert135 inverted microscope (Zeiss). […]

[10] = system: ERK-2 phosphorylation in C6 glioma cells; assay: Phosphorylated ERK-2 in whole cell lysates of C6 glioma cells; type: cell-based, rat; conditions: in parallel to the tumor invasion assay, PD98059 or PYK2-KM
Description: (§8) FIGS. 15, 16: Whole cell lysates (WCL) of C6 glioma cells were prepared in parallel to the tumor invasion assay and the content of phosphorylated ERK-2 was assessed by probing with a specific phospho-ERK2 antibody (upper panel). To confirm equal loading of proteins the blot was reprobed with a pan-ERK antibody. (16) The same experimental procedure was used as in (15) for SF767 cells. Phosphorylated ERK-2 is indicated by an arrow. Dominant-negative PYK2-KM abrogates ERK-2 activity to the same extent as MEK-1 inhibitor PD98059.
(§9) Proteins were fractionated by SDS-PAGE and electrophoretically transferred to nitrocellulose filters. For immunoblot analysis, nitrocellulose filters were first incubated with mouse monoclonal or rabbit polyclonal primary antibodies for 3 h at 4° C. Next, a HRP-coupled goat anti-mouse or goat anti-rabbit secondary antibody was added (Biorad), followed by an enhanced chemoluminescence (ECL) substrate reaction (Amersham). The substrate reaction was detected on Kodak X-Omat film. Filters that were used more than once with different antibodies were stripped according to the manufacturer's protocol, blocked and reprobed.

[11] = system: ERK-2 phosphorylation in SF767 cells; assay: Phosphorylated ERK-2 in whole cell lysates of SF767 cells; type: cell-based, human; conditions: in parallel to the tumor invasion assay, PD98059 or PYK2-KM
Description: as §8, §9

[12] = system: SF767 gliomas; assay: Tumor invasion assay, SF767 gliomas; type: cell-based, human; conditions: HRG, 16 h, retroviral infection with PYK2-KM
Description: as §5, §6, §7

[13] = system: SF763 cell line; assay: Tumor invasion assay, SF763 cell line; type: cell-based, human; conditions: HRG, 16 h, retroviral infection with PYK2-KM
Description: as §5, §6, §7

| Compound | HRG-induced tyrosine phosphorylation of PYK2 [1] | Amount of PYK2 that coprecipitates with HER3 [2] | HRG-stimulated tyrosine-phosphorylation of SHC [3] | HRG-stimulated ERK-2 activity [4] | HRG-stimulated ERK-2 activity [5] | Basal ERK-2 activity [5] | Pl3-K activity upon HRG stimulation [6] | Tyrosine phosphorylation of HER2 [7] | Tyrosine phosphorylation of SHC [8] | Tumor invasion (invasiveness) [9] | ERK-2 phosphorylation [10] | ERK-2 phosphorylation [11] | Ionomycin-induced tyrosine phosphorylation of PYK2 ([1]; 5 μM IONO 5 min, PP1 5 μM 30 min pretreatment) | Tumor invasion (invasive behaviour) [12] | Tumor invasion (invasive behaviour) [13] |
| --- | --- | --- | --- | --- | --- | --- | --- | --- | --- | --- | --- | --- | --- | --- | --- |
| COc1cc(/C=C(\C#N)C(N)=O)cc(CSc2nc3ccccc3s2)c1O [AG825] | attenuated | decreases | diminished, but not fully abrogated | diminished, but not fully abrogated | attenuated | not influenced | diminished | completely inhibits | completely inhibits |  |  |  |  |  |  |
| COc1cccc(-c2cc(=O)c3ccccc3o2)c1N [PD98059] |  |  |  |  |  |  |  |  |  | strongly attenuated | decrease | decrease |  |  |  |
| Cc1ccc(-c2nn(C(C)(C)C)c3ncnc(N)c23)cc1 [PP1] | independent of c-src |  |  |  |  |  |  |  |  |  |  |  | dependent on c-src activity |  |  |
| PYK2-KM: dominant negative, kinase-inactive PYK2 mutant K457M, expressed by retroviral infection or Tet-off system |  |  |  |  | abrogated | abrogated | attenuates |  |  | comparable abrogation of the invasive phenotype | decrease | decrease |  | strong inhibition | strong inhibition |
